Legend:
Type in all cases: cell-based, Candida albicans
C. albicans 4085 = assay: Broth microdilution MIC/MFC (CLSI M27-A4); details: C. albicans 4085 (Flz resistant)
Method: (§1) In this work, nine strains of C. albicans procured from Charlotte Maxeke Johannesburg Academic Hospital under ethical clearance number M000402 were employed (Table 1). All the C. albicans strains were preserved at −70° C. deep freezer in 50% (v/v) anhydrous glycerol (Sigma-Aldrich St. Louis, MO, U.S.A.). For conducting experiments, cultures were revived in Sabouraud Dextrose broth (SDB; Merck, Germany) at 37° C. and 120 rpm for 24 h. Additionally, the RPMI 1640 medium and MOPS (Sigma-Aldrich, USA) were prepared as described by the Clinical and Laboratory Standards Institute (CLSI).
(§2) The activity of C1 against Candida species (n=9) was first estimated in terms of minimum inhibitory concentration (MIC) and minimum fungicidal concentration (MFC). […] Briefly, stock solutions of Flz (used as reference; Sigma-Aldrich St. Louis, MO, U.S.A.) and the synthesized compound was prepared in 1% dimethyl sulfoxide (DMSO; Sigma-Aldrich St. Louis, MO, U.S.A.) and the test concentrations were formulated in RPMI 1640-MOPS medium. A two-fold dilution of the compound (1250-0.61 μg/mL) and reference drug (128-0.062 μg/mL) was prepared in 96 well plates which were then seeded with C. albicans inoculum (1×10^6 cells/mL) and incubated at 37° C. for 24 h. In every set of experiments, sterility control, 1% DMSO as negative control and growth control were included. Growth was quantified by reading the optical density at 620 nm in a UV-1800 SHIMADZU spectrophotometer (Shimadzu Corporation, Japan). The MIC was determined as the lowest concentration that inhibited the growth of Candida strains. To determine MFC, each well without visible growth was subcultured onto the SDA plates for 24 hours at 37° C. The lowest concentration killing ≥99.9% of Candida was taken as the MFC value of the test compound.

C. albicans 4106 = assay: Broth microdilution MIC/MFC (CLSI M27-A4); details: C. albicans 4106 (Flz resistant)
Method: as §1, §2

C. albicans 4175 = assay: Broth microdilution MIC/MFC (CLSI M27-A4); details: C. albicans 4175 (Flz sensitive)
Method: as §1, §2

C. albicans 4180 = assay: Broth microdilution MIC/MFC (CLSI M27-A4); details: C. albicans 4180 (Flz sensitive)
Method: as §1, §2

C. albicans 4251 = assay: Broth microdilution MIC/MFC (CLSI M27-A4); details: C. albicans 4251 (Flz sensitive)
Method: as §1, §2

C. albicans 4324 = assay: Broth microdilution MIC/MFC (CLSI M27-A4); details: C. albicans 4324 (Flz resistant)
Method: as §1, §2

C. albicans 4554 = assay: Broth microdilution MIC/MFC (CLSI M27-A4); details: C. albicans 4554 (Flz sensitive)
Method: as §1, §2

C. albicans 5112 = assay: Broth microdilution MIC/MFC (CLSI M27-A4); details: C. albicans 5112 (Flz resistant)
Method: as §1, §2

C. albicans SC5314 = assay: Broth microdilution MIC/MFC (CLSI M27-A4); details: C. albicans SC5314 (control)
Method: as §1, §2

[1] = system: Flz resistant strains of C. albicans; assay: Broth microdilution MIC/MFC, range over strains
Method: as §1
(§3) The activity of C1 against Candida species (n=9) was first estimated in terms of minimum inhibitory concentration (MIC) and minimum fungicidal concentration (MFC). […] Briefly, stock solutions of Flz (used as reference; Sigma-Aldrich St. Louis, MO, U.S.A.) and the synthesized compound was prepared in 1% dimethyl sulfoxide (DMSO; Sigma-Aldrich St. Louis, MO, U.S.A.) and the test concentrations were formulated in RPMI 1640-MOPS medium. […] Growth was quantified by reading the optical density at 620 nm in a UV-1800 SHIMADZU spectrophotometer (Shimadzu Corporation, Japan). The MIC was determined as the lowest concentration that inhibited the growth of Candida strains. […]

[2] = system: Flz susceptible strains of C. albicans; assay: Broth microdilution MIC/MFC, range over strains
Method: as §1, §3

Brc1ccc([O][Co][O]c2ccc(Br)cc2C=Nc2ccc3c(c2)OCCO3)c(C=Nc2ccc3c(c2)OCCO3)c1 [Complex C1, [Co(L)2]] was tested, and the “Median MIC” value (C. albicans 4085; 37° C., 24 h) was 9.76 µg/mL, the “Median MFC” value (C. albicans 4085; killing ≥99.9%) was 19.53 µg/mL and the “Median MIC” value (C. albicans 4106; 37° C., 24 h) was 9.76 µg/mL. For the same molecule, the “Median MFC” value (C. albicans 4106; killing ≥99.9%) was 19.53 µg/mL, the “Median MIC” value (C. albicans 4175; 37° C., 24 h) was 1.22 µg/mL and the “Median MFC” value (C. albicans 4175; killing ≥99.9%) was 2.44 µg/mL. For the same molecule, the “Median MIC” value (C. albicans 4180; 37° C., 24 h) was 2.44 µg/mL, the “Median MFC” value (C. albicans 4180; killing ≥99.9%) was 4.88 µg/mL and the “Median MIC” value (C. albicans 4251; 37° C., 24 h) was 4.88 µg/mL. For the same molecule, the “Median MFC” value (C. albicans 4251; killing ≥99.9%) was 9.76 µg/mL, the “Median MIC” value (C. albicans 4324; 37° C., 24 h) was 9.76 µg/mL and the “Median MFC” value (C. albicans 4324; killing ≥99.9%) was 19.53 µg/mL. The “Median MIC” value (C. albicans 4554; 37° C., 24 h) was 2.44 µg/mL, the “Median MFC” value (C. albicans 4554; killing ≥99.9%) was 4.88 µg/mL and the “Median MIC” value (C. albicans 5112; 37° C., 24 h) was 19.53 µg/mL. For the same molecule, the “Median MFC” value (C. albicans 5112; killing ≥99.9%) was 78.12 µg/mL, the “Median MIC” value (C. albicans SC5314; 37° C., 24 h) was 2.44 µg/mL and the “Median MFC” value (C. albicans SC5314; killing ≥99.9%) was 4.88 µg/mL. It also gave an MIC value range [1] of 9.76 to 19.53 µg/mL and an MIC value range [2] of 1.22 to 4.88 µg/mL.
